{
  "source": "patent US7238347B2",
  "about": "“Suicidal mutant Leishmania vaccine” (priority 2005, dated 2007)",
  "key": {"[1]": {"test_system": "Leishmania donovani DD8", "test": "Hamster vaccination, Experiment 2, challenge with L. donovani", "type": "in vivo, Syrian Golden hamsters", "text": "The values for body weights were from all animals available at specific time points. Two animals were sacrificed per group per time point for assessing spleen weights and parasite loads;\nImpression smears (Left panel) of cut spleens were Geimsa-stained and examined microscopically under oil immersion lens to enumerate amastigotes per 1,000 splenic nuclei as a measure of parasite loads (Right Panel). Note: Parasite loads decrease precipitously after day 45 in contrast to the control groups. The data are consistent with the data for animal body weights and spleen weights; and\nThe 2nd experiment was designed to verify and to strengthen the results of the 1st experiment by including 2 additional control groups. One is to treat animals with ALA alone so as to eliminate the potential contribution of this metabolite to the outcome observed. Another is to include pbgd single transfectants (ST) as an additional non-porphyric control to ascertain that the prophylactic effects observed are independent of factors specific to DT or L. amazonensis infection alone. There is some indication of this in the 1st experiment for “vaccination” of hamsters with the DT−ALA+LD group whose splenic parasite loads remained high, but the amastigotes look degenerative (FIG. 20). Except for “vaccination” on the back and illumination with white light, experimental conditions otherwise followed those in the 1st as follows:\nA total of 50 Syrian Golden hamsters (40-45 gm) were used 10 per group for each of the following experimental and control groups:\nDay 6 (Sep. 28, 2004): Harvest and resuspend cells for inoculation intradermally to a shaved area (˜2 cm×2 cm) on the back of the animals as follows:\nDays 9-12 (Oct. 1-4, 2004): inject the same site of each animal daily 4× with 20 ul […] ALA solution\nDays 13-17 (Oct. 5-9, 2004): Illuminate caged animals from 9 AM to 5 PM daily for five days under white light [Four bulbs of 100 W (Phillips)+2 tube lights of 40 W in an AC room of 6 ft×6 ft×10 ft] 2 ft above, keeping a constant temperature of 26-27° C.\n[…] (Oct. 25, 2004): Challenge 9 animals of each group with 107 DD8 strain of L. donovani amastigotes/animal by intracardiac route.\nDay 78 (Dec. 9, 2004): Parasitological/immunological evaluations-45 days post-challenge (FIG.).\nDay 93 (Dec. 24, 2004): Parasitological/immunological evaluations-60 days post-challenge (FIG.).\nDay 147 (Feb. 16, 2005): survivors left of a total of 4 animals 114 days after challenge, excluding 6 sacrificed for experimentation on days 0, 45, and 60."}, "[2]": {"test_system": "J774A1 macrophages infected with alad/pbgd double transfectants", "test": "Intracellular transgenic amastigotes and macrophages per culture after ALA", "type": "cell-based, mouse", "settings": "1-2 mM ALA", "method": "J774A1 cells were infected in vitro with alad/pbgd double transfectants of L. amazonensis at a promastigote-to-macrophage ratio of 10:1. Infected cultures were maintained at 35° C. with daily medium renewal for 42 days. Cultures were split equally into two, one with and the other without the addition of 1-2 mM ALA 3 times on days 2, 26 and 40 post-infection (arrows). The total number of intracellular amastigotes (left) and macrophages (right) per culture were estimated at the time points indicated, as described (Chang, 1980). Note: Decrease of intracellular amastigotes in number after the 1st 2 ALA treatments.\nIntra-macrophage amastigotes are lysed selectively when rendered uroporphyric in situ, as determined by quantitative analysis of parasites and macrophages in such infected cultures (FIG. 15). This observation further strengthens the use of porphyric Leishmania as a live model for vaccine delivery. We observed this by using macrophages infected with the double transfectants. The infected cultures were split equally into 2 identical sets. In a total period of 42 days, one set received 3 separate ALA treatments, each pulsed for ˜24 hrs, at different time points after infection, while the other set received no treatments (see legend to FIG. 15 for experimental conditions). […]"}, "[3]": {"test_system": "hamster lymph node mononuclear cells", "test": "Proliferation of lymph node cells to Con-A and Leishmania soluble antigens, tritiated thymidine", "type": "cell-based", "settings": "45 days after challenging infection, 20 ug/ml antigen", "method": "Lymph nodes of hamsters from experimental and control groups, as indicated, were used 45 days after challenging infection to prepare mononuclear cell-suspension (10^6/ml). Aliqouts of 100 ul were cultured in 96 well flat bottom tissue culture plates (Nunc, Denmark). 100 ul of Conconavalin A or soluble L. donovani promastigote antigens were added to each well, giving a final concentration of 10 ug/ml and 20 ug/ml, respectively. Cultures were prepared in triplicate for each sample and incubated at 37° C. and 5% CO2 for 3 days and 5 days for Con-A treated and antigen-treated cells, respectively. Eighteen hours prior to termination of incubation of cultures, 0.5 uCi of tritiated-thymidine was added to each well. Cells were harvested on to glass fiber mats (Whatman) for liquid scintillation counting."}},
  "data": [
    {"smiles": "NCC(=O)CCC(=O)O", "note": "[ALA, delta-aminolevulinate]", "values": [
      {"measurement": "survivors left of a total of 4 animals", "setting": "[1]; 114 days after challenge", "result": "0/4"},
      {"measurement": "immunoprophylactic effect", "setting": "[1]; ALA treatment alone", "result": "ineffective"},
      {"measurement": "splenic parasite loads, amastigotes in impression smears", "setting": "[1]; day 45 to day 60 post challenge", "result": "abundant in number"},
      {"measurement": "splenomegaly by spleen weight", "setting": "[1]; days 45 and 60 post-challenge", "result": "most pronounced"},
      {"measurement": "growth of J774A1 macrophages", "setting": "[2]", "result": "unaffected"},
      {"measurement": "lymph node cell response to LSA", "setting": "[3]", "result": "virtually no response"}
    ]}
  ]
}
